Measurements as given in the supplement of paper PMC11061612.

Assays:
Experiment in all cases: Bliss excess, mean over the matrix (fraction); higher = more synergy
[1] = system: DiFi (Colorectal Carcinoma)
In short: (§1)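 After 24 hours at 37°C and 5% CO2 in 1536-well plates, cells in DMEM/F12 or RPMI plus 10% FBS received two-drug dose matrices for 72 hours. Viability came from CellTiter-Glo 2.0 luminescence and was scaled as inhibition, anchored at 0 by vehicle wells and at 1 by blank wells. Combination Emax is taken as the second-highest inhibition in the matrix, and Bliss excess as the observed combination effect less EA + EB − EA·EB, with EA and EB the single-agent effects.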

[2] = system: COLO-678 (Colorectal Carcinoma)
In short: as §1

[3] = system: TOV-112D (Ovarian Carcinoma)
In short: as §1

U251 (Low Grade Glioma) = system: U251 (Low Grade Glioma)
In short: as §1

[4] = system: L-540 (Hodgkin's Lymphoma)
In short: as §1

[5] = system: MFM-223 (Breast Carcinoma)
In short: as §1

[6] = system: KYSE-180 (Esophageal Squamous Cell Carcinoma)
In short: as §1

[7] = system: PANC-08-13 (Pancreatic Carcinoma)
In short: as §1

[8] = system: KCL-22 (Chronic Myelogenous Leukemia)
In short: as §1

[9] = system: TE-6 (Esophageal Squamous Cell Carcinoma)
In short: as §1

[10] = system: EVSA-T (Breast Carcinoma)
In short: as §1

LN-18 (Glioblastoma) = system: LN-18 (Glioblastoma)
In short: as §1

[11] = system: NCI-H1792 (Lung Adenocarcinoma)
In short: as §1

[12] = system: HDQ-P1 (Breast Carcinoma)
In short: as §1

TC-71 (Ewing's Sarcoma) = system: TC-71 (Ewing's Sarcoma)
In short: as §1

[13] = system: K-562 (Chronic Myelogenous Leukemia)
In short: as §1

[14] = system: P12-ICHIKAWA (T-Lymphoblastic Leukemia)
In short: as §1

[15] = system: SW837 (Colorectal Carcinoma)
In short: as §1

[16] = system: SR (Other Blood Carcinomas)
In short: as §1

[17] = system: DND-41 (T-Lymphoblastic Leukemia)
In short: as §1

Row | SMILES | Bliss excess [1] | Bliss excess [2] | Bliss excess [3] | Bliss excess (U251 (Low Grade Glioma)) | Bliss excess [4] | Bliss excess [5] | Bliss excess [6] | Bliss excess [7] | Bliss excess [8] | Bliss excess [9] | Bliss excess [10] | Bliss excess (LN-18 (Glioblastoma)) | Bliss excess [11] | Bliss excess [12] | Bliss excess (TC-71 (Ewing's Sarcoma)) | Bliss excess [13] | Bliss excess [14] | Bliss excess [15] | Bliss excess [16] | Bliss excess [17]
1 | Cc1nc(Nc2ncc(C(=O)Nc3c(C)cccc3Cl)s2)cc(N2CCN(CCO)CC2)n1 [Dasatinib] + CC(=O)Nc1cccc(-n2c(=O)n(C3CC3)c(=O)c3c(Nc4ccc(I)cc4F)n(C)c(=O)c(C)c32)c1 [Trametinib] (first compound max 2 µM, 7x7, partner max 1 µM) | -0.0465 | -0.0945 | 0.0773 | 0.0682 | -0.0484 | -0.0546 | -0.0424 | 0.143 | -0.0501 | -0.0255 | -0.0361 | -0.0433 | 0.0422 | -0.0033 | -0.0333 | -0.0956 | 0.0326 | 0.0448 | -0.0069 | -0.0333
2 | NC1(C(=O)N[C@@H](CCO)c2ccc(Cl)cc2)CCN(c2ncnc3[nH]ccc23)CC1 [Capivasertib] + CCN(CCO)CCCOc1ccc2c(Nc3cc(CC(=O)Nc4cccc(F)c4)[nH]n3)ncnc2c1 [AZD2811] (first compound max 10 µM, 7x7, partner max 1 µM) | -0.0475 | -0.0218 | 0.0175 | 0.0469 | 0.0547 | -0.0072 | -0.0303 | -0.0015 | 0.0544 | -0.0003 | 0.0219 | -0.022 | -0.0079 | -0.0077 | -0.0573 | -0.0151 | -0.014 | -0.0646 | -0.0053 | 0.0071
3 | CC1(C)CCC(CN2CCN(c3ccc(C(=O)NS(=O)(=O)c4ccc(NCC5CCOCC5)c([N+](=O)[O-])c4)c(Oc4cnc5[nH]ccc5c4)c3)CC2)=C(c2ccc(Cl)cc2)C1 [Venetoclax] + COc1cc(Nc2ncc3c(n2)-c2ccc(Cl)cc2C(c2c(F)cccc2OC)=NC3)ccc1C(=O)O [Alisertib] (first compound max 1 µM, 7x7, partner max 10 µM) | 0.0661 | -0.0712 | 0.116 | 0.0027 | 0.161 | -0.0077 | 0.0114 | -0.032 | 0.163 | 0.0047 | 0.0434 | 0.0481 | 0.0603 | -0.0185 | 0.0868 | 0.0498 | -0.0398 | -0.0319 | 0.013 | 0.116
4 | CS(=O)(=O)CCNCc1ccc(-c2ccc3ncnc(Nc4ccc(OCc5cccc(F)c5)c(Cl)c4)c3c2)o1 [Lapatinib] + C[C@@H](Oc1cc(-c2cnn(C3CCNCC3)c2)cnc1N)c1c(Cl)ccc(F)c1Cl [Crizotinib] (first compound max 10 µM, 7x7, partner max 10 µM) | 0.0187 | -0.0488 | 0.0028 | -0.0586 | -0.0731 | 0.0148 | 0.0476 | -0.0246 | 0.0178 | -0.0111 | -0.0359 | -0.0342 | -0.0342 | -0.0144 | -0.0079 | -0.0453 | -0.0077 | -0.0345 | 0.019 | -0.0272
5 | C[C@@H](c1ccc2nccn2c1)n1nnc2ncc(-c3cnn(C)c3)nc21 [Savolitinib] + CC1(C)CCC(CN2CCN(c3ccc(C(=O)NS(=O)(=O)c4ccc(NCC5CCOCC5)c([N+](=O)[O-])c4)c(Oc4cnc5[nH]ccc5c4)c3)CC2)=C(c2ccc(Cl)cc2)C1 [Venetoclax] (first compound max 1 µM, 7x7, partner max 1 µM) | -0.0468 | -0.112 | -0.0489 | -0.0938 | 0.0201 | -0.0414 | -0.0326 | -0.0436 | -0.0352 | -0.0559 | -0.0269 | -0.0265 | -0.0597 | -0.085 | -0.0517 | -0.0187 | -0.0414 | -0.0813 | 0.0747 | -0.0082
6 | Cc1c2c(nn1C)CSCc1cc(n(C)n1)CSc1cc(c3ccccc3c1)OCCCc1c(C(=O)O)n(C)c3c-2c(Cl)ccc13 [AZD5991] + CC1(C)CCC(CN2CCN(c3ccc(C(=O)NS(=O)(=O)c4ccc(NCC5CCOCC5)c([N+](=O)[O-])c4)c(Oc4cnc5[nH]ccc5c4)c3)CC2)=C(c2ccc(Cl)cc2)C1 [Venetoclax] (first compound max 1 µM, 7x7, partner max 1 µM) | 0.0436 |  | 0.0582 | -0.0068 | 0.0902 | -0.0041 | 0.0103 | -0.0411 | 0.0111 | -0.157 | 0.0125 | -0.0167 | 0.0248 | -0.0129 | 0.0733 | -0.003 | 0.0268 | -0.0169 | 0.0732 | 0.044
7 | COc1nnc2ccc(N3CCC(c4ccc(OCCN5CCN(C)C(=O)[C@H]5C)cc4)CC3)nn12 [AZD5153] + CN(CC[C@H](CSC1=CC=CC=C1)NC2=C(C=C(C=C2)S(=O)(=O)NC(=O)C3=CC=C(C=C3)N4CCC(CC4)[C@H](C5=CC=CC=C5C6=CC=C(C=C6)Cl)O)S(=O)(=O)C(F)(F)F)CCO [AZD4320] (first compound max 1 µM, 7x7, partner max 1 µM) | 0.0671 | 0.0322 | 0.0022 | 0.0547 |  | -0.0065 | 0.0551 | 0.0589 | 0.078 | -0.0157 | 0.0426 | -0.0251 |  | 0.0844 | -0.081 |  | 0.0283 |  |  | 
8 | COc1cccc(OCCCN)c1-c1cc(Nc2cnc(C#N)cn2)n[nH]1 [Prexasertib] + C[C@@H]1COCCN1C2=NC(=NC(=C2)C3(CC3)[S@](=N)(=O)C)C4=C5C=CNC5=NC=C4 [AZD6738] (first compound max 1 µM, 7x7, partner max 10 µM) | -0.0794 | -0.0346 | 0.0177 | -0.0193 | -0.0341 | -0.106 | -0.0702 | -0.0421 | -0.0302 | 0.0669 | 0.0094 | 0.0188 | -0.0129 | 0.11 | -0.0164 | -0.0435 |  | 0.0106 | -0.0164 | -0.0651
9 | CCN(CCO)CCCOc1ccc2c(Nc3cc(CC(=O)Nc4cccc(F)c4)[nH]n3)ncnc2c1 [AZD2811] + O=C(c1cc(Cc2n[nH]c(=O)c3ccccc23)ccc1F)N1CCN(C(=O)C2CC2)CC1 [Olaparib] (first compound max 1 µM, 7x7, partner max 10 µM) | -0.0153 | -0.0223 | 0.0355 | 0.0281 | 0.0113 | 0.0058 | 0.0207 | -0.0087 | 0.0534 | -0.0006 | 0.0242 | -0.0299 | -0.0029 | 0.0076 | -0.0772 | 0.0216 |  | 0.0027 | -0.0064 | -0.0059
10 | COc1cccc(OCCCN)c1-c1cc(Nc2cnc(C#N)cn2)n[nH]1 [Prexasertib] + O=C(c1cc(Cc2n[nH]c(=O)c3ccccc23)ccc1F)N1CCN(C(=O)C2CC2)CC1 [Olaparib] (first compound max 1 µM, 7x7, partner max 10 µM) | -0.0265 | -0.0157 | 0.0277 | 0.0369 | -0.0351 | -0.124 | -0.0371 | -0.076 | -0.0599 | -0.0452 | -0.0312 | -0.0368 | -0.0161 | 0.0002 | -0.017 | -0.105 |  | -0.0854 | 0.0119 | -0.101
11 | C=CCn1c(=O)c2cnc(Nc3ccc(N4CCN(C)CC4)cc3)nc2n1-c1cccc(C(C)(C)O)n1 [AZD1775] + C[C@@H]1COCCN1C2=NC(=NC(=C2)C3(CC3)[S@](=N)(=O)C)C4=C5C=CNC5=NC=C4 [AZD6738] (first compound max 1 µM, partner max 10 µM) | 0.0242 | -0.028 | 0.0714 | 0.0604 | -0.0091 | 0.0412 | 0.0869 | -0.0203 | 0.0331 | 0.0135 | 0.033 | 0.086 | 0.0105 | -0.0038 | 0.0431 | 0.0433 |  | 0.0057 | 0.0174 | 0.0181
12 | COc1cccc(OCCCN)c1-c1cc(Nc2cnc(C#N)cn2)n[nH]1 [Prexasertib] + Cc1cc2ncnn2cc1Nc1ncc2c(n1)n(C1CCOCC1)c(=O)n2C [AZD7648] (first compound max 1 µM, 7x7, partner max 10 µM) | -0.0046 | -0.0384 | -0.0241 | -0.0114 | -0.0223 | 0.0065 | -0.0431 | -0.0089 | -0.0133 | 0.001 | 0.017 | -0.0198 | -0.0227 | -0.0236 | -0.0419 | -0.0282 |  | -0.0143 | 0.0003 | -0.0979
13 | COc1cccc2c1C(=O)c1c(O)c3c(c(O)c1C2=O)C[C@@](O)(C(=O)CO)C[C@@H]3O[C@H]1C[C@H](N)[C@H](O)[C@H](C)O1 [Doxorubicin] + Cc1cc2ncnn2cc1Nc1ncc2c(n1)n(C1CCOCC1)c(=O)n2C [AZD7648] (first compound max 1 µM, 7x7, partner max 10 µM) | 0.051 | 0.0188 | 0.0679 | 0.0913 | 0.0793 | 0.0261 | 0.0587 | -0.0102 | 0.086 | -0.0541 | 0.0503 | 0.0386 | 0.067 | 0.0561 | 0.162 | 0.076 |  | 0.0068 | 0.0651 | 0.115
14 | CCc1c2c(nc3ccc(O)cc13)-c1cc3c(c(=O)n1C2)COC(=O)[C@]3(O)CC [SN-38] + CN(C)CCCOc1ccc(-c2ccc3ncc4c(c3c2)n(C2CCOCC2)c(=O)n4C)cn1 [AZD0156] (first compound max 0.3 µM, 7x7, partner max 1 µM) | 0.0735 | -0.0558 | 0.0401 | -0.0239 | 0.0206 | -0.0144 | 0.0421 | -0.0316 | 0.0872 | -0.0254 | -0.0354 | 0.0759 | 0.0517 | 0.0065 | 0.0736 | 0.0331 |  | -0.0613 | 0.0878 | -0.0584
